Publication PMC9090415, “Discovery of small molecule inhibitors of Plasmodium falciparum apicoplast DNA polymerase” (Journal of Enzyme Inhibition and Medicinal Chemistry, 2022)

Target: P. falciparum apicoplast DNA polymerase (Pf-apPOL) (Plasmodium falciparum, UniProt Q8ILY1)
Experiment: Fluorescence-based high-throughput DNA polymerase assay (molecular beacon), primary screen and dose-response
Format: biochemical
Experimental: The HT assay employs a molecular beacon, a stem-loop DNA template with a Cy3 dye and the Black Hole Quencher on the 3′ and 5′ ends of the DNA, respectively. Pf-apPOL concentration is based on a calculated absorptivity of ε280 = 56750 M^−1 cm^−1. Reactions were carried out at 25 °C, using Corning 3575 […] (well-volume, 20 µL). Assays testing for compound inhibition composed of reaction buffer (pH 7.9 in 50 mM potassium acetate, 20 mM Tris-acetate and 10 mM magnesium acetate), Pf-apPOL (20 nM), DNA substrate (20 nM), dNTPs (6 µM), and compound (10 µM in DMSO). The DNA and nucleotide substrates (dNTPs) were at concentrations of 20 nM and 6 µM, respectively, in the assay. Pf-apPOL was incubated in the reaction buffer with dNTPs and the compound of interest (10 µM, in the assay) at 25 °C for 10 min. The DNA substrate was then added and the reaction was allowed to proceed for 90 min at 25 °C.
Each assay plate contained 16 negative controls (no Pf-apPOL, DMSO present) and 16 positive controls (Pf-apPOL present, no DMSO). The fluorescence of each well was determined using a BioTek Synergy Neo fluorescence plate reader using excitation and emission wavelengths of 555 and 570 nm, respectively.
In the above, Min is the average of fluorescence emission of the negative controls (substrate only), Max the average fluorescence emission from the positive controls (enzyme + substrate), and Test the emission from the assays in the presence of compounds (enzyme + compound + substrates). […] […] The IC50 of each compound was determined using Equation (2): (2) IC50= Vmax/(1+ (I/IC50)^n)
In the above, n measures cooperativity, with n > 1 indicating synergistic binding of more than a single molecule of the compound.
To identify apPOL inhibitors we utilised our previously developed high-throughput DNA polymerase assay. The HT assay is based on a molecular beacon DNA template that forms a stem-loop with a Cy3 dye and the Black Hole Quencher on the 3′ and 5′ ends of the DNA, respectively. DNA polymerase activity extends an annealed primer through the stem region, displacing the fluorophore from the quencher, thereby increasing its fluorescence (Figure 1(A)). The assay accurately recapitulates the kinetic behaviour of apPOL, as measured through more conventional low-throughput gel-based assays. The Z′ factor for the assay described here was 0.9 across all plates (data not shown).
Figure 1. High-throughput screening. (A) The fluorescent-based DNA polymerase assay used to screen the compound libraries. The DNA template strand is a hairpin loop with a primer annealed to the loop. The 3’ end of the primer is 11 bases away from the 6 bp duplex. Strand displacement activity of the DNA polymerase separates the Cy3 dye from the Black hole quencher leading to an increase in fluorescent signal. (B) The high-throughput assay workflow. The DNA polymerase is incubated with […] compound for 10 min prior to addition of the hairpin substrate. The reaction is quenched at 3 different time points and the fluorescent signal is measured and % inhibition is determined using the provided equation.

Chain of P. falciparum apicoplast DNA polymerase (Pf-apPOL) (Q8ILY1 entry or part of it): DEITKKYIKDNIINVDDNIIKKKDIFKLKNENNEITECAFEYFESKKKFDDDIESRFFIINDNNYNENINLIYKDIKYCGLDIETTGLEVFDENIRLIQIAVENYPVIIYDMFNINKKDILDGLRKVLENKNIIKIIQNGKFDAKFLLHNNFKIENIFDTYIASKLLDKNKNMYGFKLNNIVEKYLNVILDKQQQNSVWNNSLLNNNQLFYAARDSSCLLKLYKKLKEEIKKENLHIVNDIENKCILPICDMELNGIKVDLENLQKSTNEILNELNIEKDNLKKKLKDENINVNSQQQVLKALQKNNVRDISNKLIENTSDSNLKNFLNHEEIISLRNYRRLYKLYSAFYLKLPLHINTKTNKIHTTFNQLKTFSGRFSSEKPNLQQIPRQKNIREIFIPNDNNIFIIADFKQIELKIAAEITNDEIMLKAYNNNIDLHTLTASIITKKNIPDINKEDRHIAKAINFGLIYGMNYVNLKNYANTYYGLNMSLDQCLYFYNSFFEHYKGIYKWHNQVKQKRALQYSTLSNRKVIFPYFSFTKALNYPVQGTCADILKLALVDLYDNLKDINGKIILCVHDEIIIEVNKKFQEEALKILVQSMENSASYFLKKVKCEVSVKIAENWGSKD

CSC(C)C(=O)C=CN(C)C (centres unmarked) [Molecule 71, CSC(C(=O)C=CN(C)C)C]
DNA Pol ('DNA Pol'; screening value, unit not given; 90 min, 10 µM): 74 | % inhibition Apo pol 10' (DRC-1; 10'; concentration 2.5): 3.1346% | % inhibition Apo pol 10' (DRC-1; 10'; concentration 5): 9.272% | % inhibition Apo pol 10' (DRC-1; 10'; concentration 10): 23.0547% | % inhibition Apo pol 10' (DRC-1; 10'; concentration 20): 40.6618% | % inhibition Apo pol 10' (DRC-1; 10'; concentration 40): 61.0031% | % inhibition Apo pol 10' (DRC-1; 10'; concentration 80): 73.8561% | % inhibition Apol 90' (DRC-1; 90'; concentration 2.5): -5.565% | % inhibition Apol 90' (DRC-1; 90'; concentration 5): -2.761% | % inhibition Apol 90' (DRC-1; 90'; concentration 10): 6.496% | % inhibition Apol 90' (DRC-1; 90'; concentration 20): 18.7859% | % inhibition Apol 90' (DRC-1; 90'; concentration 40): 40.8686% | % inhibition Apol 90' (DRC-1; 90'; concentration 80): 61.3008% | % inhibition apPOL 180' (DRC-1; 180'; concentration 2.5): -9.552% | % inhibition apPOL 180' (DRC-1; 180'; concentration 5): -9.951% | % inhibition apPOL 180' (DRC-1; 180'; concentration 10): -3.723% | % inhibition apPOL 180' (DRC-1; 180'; concentration 20): 5.025% | % inhibition apPOL 180' (DRC-1; 180'; concentration 40): 23.5627% | % inhibition apPOL 180' (DRC-1; 180'; concentration 80): 48.8803% | % inhibition Apo pol 5' (DRC-2, 5', concentration 2.5): 11% | % inhibition Apo pol 5' (DRC-2, 5', concentration 5): 14% | % inhibition Apo pol 5' (DRC-2, 5', concentration 10): 26% | % inhibition Apo pol 5' (DRC-2, 5', concentration 20): 41% | % inhibition Apo pol 5' (DRC-2, 5', concentration 40): 46% | % inhibition Apo pol 5' (DRC-2, 5', concentration 80): 48% | % inhibition Apol 40' (DRC-2, 40', concentration 2.5): 11% | % inhibition Apol 40' (DRC-2, 40', concentration 5): 11% | % inhibition Apol 40' (DRC-2, 40', concentration 10): 21% | % inhibition Apol 40' (DRC-2, 40', concentration 20): 42% | % inhibition Apol 40' (DRC-2, 40', concentration 40): 50% | % inhibition Apol 40' (DRC-2, 40', concentration 80): 62% | % inhibition ApPOL 90' (DRC-2, 90', concentration 2.5): 9% | % inhibition ApPOL 90' (DRC-2, 90', concentration 5): 6% | % inhibition ApPOL 90' (DRC-2, 90', concentration 10): 15% | % inhibition ApPOL 90' (DRC-2, 90', concentration 20): 39% | % inhibition ApPOL 90' (DRC-2, 90', concentration 40): 47% | % inhibition ApPOL 90' (DRC-2, 90', concentration 80): 64% | % inhibition apPOL 180' (DRC-2, 180', concentration 2.5): 4% | % inhibition apPOL 180' (DRC-2, 180', concentration 5): 0.715% | % inhibition apPOL 180' (DRC-2, 180', concentration 10): 5.41% | % inhibition apPOL 180' (DRC-2, 180', concentration 20): 31% | % inhibition apPOL 180' (DRC-2, 180', concentration 40): 37% | % inhibition apPOL 180' (DRC-2, 180', concentration 80): 65% | % inhibition Apo pol 5' (conc 2.5 (unit not given); 5'; DRC-2): 11% | % inhibition Apol 40' (conc 2.5 (unit not given); 40'; DRC-2): 11% | % inhibition Apol 40' (conc 5 (unit not given); 40'; DRC-2): 11% | DNA Pol (primary screen hit value, DNA Pol (186 hits); 90 min, 10 µM): 74

NC(=O)c1cc[n+](CC2=C(C(=O)[O-])N3C(=O)[C@@H](NC(=O)[C@@H](c4ccccc4)S(=O)(=O)[O-])[C@H]3SC2)cc1.[Na+] [Molecule 9, O=C([C@H](S(=O)(=O)[O-])c1ccccc1)N[C@@H]1C(=O)N2[C@@H]1SCC(=C2C(=O)[O-])C[n+]1ccc(cc1)C(=O)N.[Na+]]
DNA Pol ('DNA Pol' of the 186 hits list (primary screen result); unit not given; 90 min, 10 µM): 104 | % inhibition Apo pol 10' (DRC-1; 10'; concentration 2.5): 39.849% | % inhibition Apo pol 10' (DRC-1; 10'; concentration 5): 54.1804% | % inhibition Apo pol 10' (DRC-1; 10'; concentration 10): 77.8206% | % inhibition Apo pol 10' (DRC-1; 10'; concentration 20): 94.0018% | % inhibition Apo pol 10' (DRC-1; 10'; concentration 40): 97.9008% | % inhibition Apo pol 10' (DRC-1; 10'; concentration 80): 96.5672% | % inhibition Apol 90' (DRC-1; 90'; concentration 2.5): 3.442% | % inhibition Apol 90' (DRC-1; 90'; concentration 5): 17.2714% | % inhibition Apol 90' (DRC-1; 90'; concentration 10): 53.7945% | % inhibition Apol 90' (DRC-1; 90'; concentration 20): 88.3864% | % inhibition Apol 90' (DRC-1; 90'; concentration 40): 97.5% | % inhibition Apol 90' (DRC-1; 90'; concentration 80): 97.5161% | % inhibition apPOL 180' (DRC-1; 180'; concentration 2.5): -2.063% | % inhibition apPOL 180' (DRC-1; 180'; concentration 5): 5.595% | % inhibition apPOL 180' (DRC-1; 180'; concentration 10): 40.8592% | % inhibition apPOL 180' (DRC-1; 180'; concentration 20): 84.7929% | % inhibition apPOL 180' (DRC-1; 180'; concentration 40): 96.7618% | % inhibition apPOL 180' (DRC-1; 180'; concentration 80): 97.7754% | % inhibition Apo pol 5' (DRC-2, 5', concentration 20 (unit not given)): 56% | % inhibition Apol 40' (DRC-2, 40', concentration 40 (unit not given)): 76% | % inhibition Apol 40' (DRC-2, 40', concentration 80 (unit not given)): 76% | % inhibition apPOL 180' (DRC-2, 180', concentration 40 (unit not given)): 83% | % inhibition apPOL 180' (DRC-2, 180', concentration 80 (unit not given)): 83% | % inhibition Apo pol 5' (DRC-2; 5'; concentration 2.5): 21% | % inhibition Apo pol 5' (DRC-2; 5'; concentration 5): 28% | % inhibition Apo pol 5' (DRC-2; 5'; concentration 10): 47% | % inhibition Apo pol 5' (DRC-2; 5'; concentration 20): 56% | % inhibition Apo pol 5' (DRC-2; 5'; concentration 40): 58% | % inhibition Apo pol 5' (DRC-2; 5'; concentration 80): 56% | % inhibition Apo pol 5' (DRC-2; 5'; concentration 80 (unit not given)): 56% | % inhibition Apol 40' (DRC-2; 40'; concentration 2.5): -0.192% | % inhibition Apol 40' (DRC-2; 40'; concentration 5): 15% | % inhibition Apol 40' (DRC-2; 40'; concentration 10): 49% | % inhibition Apol 40' (DRC-2; 40'; concentration 20): 71% | % inhibition Apol 40' (DRC-2; 40'; concentration 40): 76% | % inhibition Apol 40' (DRC-2; 40'; concentration 80): 76% | % inhibition ApPOL 90' (DRC-2; 90'; concentration 2.5): -4% | % inhibition ApPOL 90' (DRC-2; 90'; concentration 5): 8% | % inhibition ApPOL 90' (DRC-2; 90'; concentration 10): 46% | % inhibition ApPOL 90' (DRC-2; 90'; concentration 20): 74% | % inhibition ApPOL 90' (DRC-2; 90'; concentration 40): 81% | % inhibition ApPOL 90' (DRC-2; 90'; concentration 80): 80% | % inhibition apPOL 180' (DRC-2; 180'; concentration 2.5): 1.56% | % inhibition apPOL 180' (DRC-2; 180'; concentration 5): 9% | % inhibition apPOL 180' (DRC-2; 180'; concentration 10): 41% | % inhibition apPOL 180' (DRC-2; 180'; concentration 20): 75% | % inhibition apPOL 180' (DRC-2; 180'; concentration 40): 83% | % inhibition apPOL 180' (DRC-2; 180'; concentration 80): 83% | DNA Pol (primary screen value of the library well; unit not given; 90 min, 10 µM): 104

Cc1cccc(NC(=O)Cn2ccc3c(=O)[nH]ccc32)c1C [Molecule 11]
IC50 (supplemental file 2, sheet IC50 nontoxic compounds; Pf-apPOL): 7.57 µM
